Article PMC7076174 (Frontiers in Oncology, 2020)
pIC50: −log10 of the molar value.

Columns and labels:
GSKβ = tested on: GSKβ; set-up: method as in PMID 23305709; details: cited from earlier work
GSK3α = tested on: GSK3α; set-up: method as in PMID 23305709; details: cited from earlier work
GSK3 [1] = details: six patients with evaluable samples; CD34+ and/or CD117+ cells
Description: Blood samples were collected at baseline, days 1, 8, and 30 and at the end of the study period. Specimens were processed only if ≥5% leukemic cells were present in the blood as assessed using morphologic criteria. […] Bone marrow was collected at baseline and end of study. Immunophenotyping was performed by multi-parameter flow cytometry using fluorochrome-labeled antibodies to CD11b, CD14, and CD15 as markers for monocytic and/or granulocytic differentiation ([19]–[22]). The stained samples were run on a BD Biosciences LSRII (San Jose, CA, USA) flow cytometer. Cells were concurrently stained for CD34, CD117, and CD38 for identification of the leukemic blast and stem cell populations (CD34+ CD38–). […] Phosphorylated Serine-9 GSK3β antibody was obtained from Cell Signaling Technologies (Beverly, MA, USA).

[2] = Method: Lithium carbonate (lithium) 300 mg was administered orally three times a day (or two times daily for patients age ≥65 years) starting on day - 3 prior to cycle 1 and on day 1 of all subsequent cycles consisting of 28 days (Figure 1). The “lead-in” period prior to cycle 1 was designed to allow for correlative studies to investigate the effects of lithium on leukemic cell GSK3 activity and to ensure achievement of adequate serum lithium concentrations prior to tretinoin exposure. The target serum lithium concentration was the laboratory-defined therapeutic range of 0.6–1.0 mmol/L based on toxicity in humans for treatment of mood disorders. Dose adjustments were made based on the serum lithium concentration (Supplementary Figure 1). Dosing of tretinoin followed a “3+3” study design with three patients sequentially enrolled at each dose level ([13]). Tretinoin was administered orally at a dose of 22.5 mg/m^2/day (dose level 1) or 45 mg/m^2/day (dose level 2) in two divided doses, from days 1 to 7 and from days 15 to 21 of a 28-day cycle.
GSK3 [3] = details: cited from earlier work
[4] = tested on: CD34+ CD38– AML stem cell population; details: tretinoin 0.5 μM, 6 days; in three samples
Excerpt: In order to study the separate effects of GSK3 inhibition or tretinoin on AML stem cells, we used previously obtained cryopreserved blood samples from the Eastern Cooperative Oncology Group (ECOG) tumor repository of newly diagnosed and untreated AML patients (independent of this trial) to conduct in vitro studies. […] Cryopreserved cells were thawed and cultured in RPMI 1640 media (Hyclone) containing 10% fetal bovine serum (Sigma-Aldrich, St. Louis, MO, USA) and 1% final concentration penicillin and streptomycin. Amphotericin B (0.5 μg/ml) and ciprofloxacin (10 μg/ml) were added to help eliminate fungal and mycoplasma contamination in the cell culture. Cells were treated with SB415285 (10 μM) obtained from Tocris (Bristol, UK), a laboratory-grade GSK3 inhibitor which competitively binds to the ATP binding site of GSK3 ([23]), and tretinoin (0.5 μM). […] After 6 days, immunophenotyping for the CD34+ CD38– AML stem cell population was performed by flow cytometry.

For `O=C1NC(=O)C(c2cnc3ccccn23)=C1c1cn2c3c(cc(F)cc13)CN(C(=O)N1CCCCC1)CC2` [LY2090314], the pIC50 (GSKβ) is listed as 9.05 and the pIC50 (GSK3α) is listed as 8.82.
For `O=C([O-])[O-].[Li+].[Li+]` [lithium, Lithium carbonate], the “Median increase in pGSK3β, change in mean fluorescence intensity (MFI) from baseline” value (GSK3 [1]) was 1,093 (range, 111–1,738), the “Target serum lithium concentration (0.6–1.0 mmol/L) achieved” value ([2]; oral lithium carbonate 300 mg 2–3 times daily, dose adjusted) was “achieved at least once in all nine patients” and the “Serum lithium concentration at admission” value ([2]; patient with delirium (DLT), third week of treatment, dose level 1) was 0.28 mmol/L. For the same compound, the “Lithium threshold concentration necessary in vivo to significantly inhibit GSK3” value (GSK3 [3]) was ~ 0.8 mmol/L.
With `CC1=C(/C=C/C(C)=C/C=C/C(C)=C/C(=O)O)C(C)(C)CCC1` [tretinoin] the “Reduction of the CD34+ CD38– population, tretinoin alone vs combination with SB415285” value [4] was “comparable reduction of the CD34+ CD38– population”.
